Results reported in article PMC8067754, “Active Transport of Hepatotoxic Pyrrolizidine Alkaloids in HepaRG Cells” (International Journal of Molecular Sciences, 2021).

Legend:
[1] = Cell viability (MTT assay) of HepaRG cells with and without transporter inhibitors; assay type: cell-based, human; details: human, HepaRG cells, HepaRG, no PA, inhibitor alone 24 h: CsA 10 µM, Ko143 5 µM, MK571 50 µM, Qu 100 µM, TEA 3 mM; read-out: Cell viability (MTT), percent of solvent control, Mean [%]
Description: (§1) In the case of TEA, cells were pre-incubated 24 h prior to PA treatment. The inhibitors were applied anew at PA incubation.
(§2) To analyze the cytotoxic effects of PAs on HepaRG cells with non-inhibited and inhibited hepatic transporters, the cells were seeded at a density of 9000 cells per well in the inner 60 wells of a 96-well plate and cultivated as described in Section 4.2. After four weeks of cultivation, FBS concentration in the cell culture medium was reduced to 2% for 48 h prior incubation. Thereby, inhibitory effects of peptide growth factors from the FBS on xenobiotic-metabolizing enzymes were minimized. […] The cells were pre-incubated with pharmacological inhibitors as described in Section 4.3. […] Cell viability was analyzed via the MTT test. 10 µl MTT reagent (5 mg/mL MTT dissolved in phosphate-buffered saline, PBS) was added per well and incubated for 1 h at 37 °C. The supernatant was discarded, and the violet formazan crystals dissolved in 130 µL desorption solution (0.7% sodium dodecyl sulfate in propan-2-ol). After shaking for 20 min (under protection from light), absorbance was measured on a TecanM200Pro spectrometer (Tecan Group Ltd., Männedorf, Switzerland) at a wavelength of 570 nm, along with a reference wavelength of 630 nm.

HepaRG cells [2] = experiment: PA and PANO content in cell culture medium of HepaRG cells upon pharmacological transporter inhibition (LC-MS/MS); assay type: in vitro ADME, human; details: HepaRG, 2.5 µM PA, 4, 8, 24 h; CsA 10 µM, Ko143 5 µM, MK-571 50 µM, Qu 100 µM, TEA 3 mM
Description: as §1
In order to measure time-dependent depletion of PA and PANO content in cell culture medium, cells were seeded at a density of 0.2 × 10^6 cells per well in a 6-well plate and cultivated as described in Section 4.2. After four weeks of cultivation, cells were adapted to serum-free medium and medium substituted with insulin, transferrin, selenium (ITS) serum extender (Capricorn Scientific, Ebsdorfergrund, Germany) 48 h prior to PA incubation for optimal LC-MS/MS measurements. […] Samples were taken after 2 h, 4 h, 8 h and 24 h.
Briefly, chromatographic separation of PA/PANO analytes was achieved on a 50 × 2.1 mm Kinetex ™ 2.6 μm CoreShell EVO C18 100 Å column protected by a SecurityGuard ™ ULTRA EVO C 18 2.1 mm guard column (both Phenomenex, Aschaffenburg, Germany) at a flow rate of 0.4 mL/min on a Shimadzu high performance liquid chromatography (HPLC) apparatus (LC-20AB, SIL-20AC HT, CTO-20AC, CBM-20A, Duisburg, Germany) coupled to an API4000 triple quadrupole MS (Sciex, Darmstadt, Germany). The following MS parameters were used for measurements in positive electrospray ionisation (ESI+) mode: ionisation voltage 2500 V, nebuliser gas 50 psi, heating gas 50 psi, curtain gas 30 psi, temperature 600 °C, collision gas level 7. The substance specific parameters are summarized in Kaltner et al. 2019 [79].

SLC22A1 = target: T1, SLC22A1 (Homo sapiens, UniProt O15245); experiment: ASP+ (SLC22A1 substrate) uptake measurement in HepaRG cells; assay type: cell-based
T1 construct: For measuring the uptake of ASP^+ in HepaRG cells incubated with PAs; endogenous in cells; host or cells: differentiated HepaRG cells (human hepatoma)
T1 sequence (O15245 1-554): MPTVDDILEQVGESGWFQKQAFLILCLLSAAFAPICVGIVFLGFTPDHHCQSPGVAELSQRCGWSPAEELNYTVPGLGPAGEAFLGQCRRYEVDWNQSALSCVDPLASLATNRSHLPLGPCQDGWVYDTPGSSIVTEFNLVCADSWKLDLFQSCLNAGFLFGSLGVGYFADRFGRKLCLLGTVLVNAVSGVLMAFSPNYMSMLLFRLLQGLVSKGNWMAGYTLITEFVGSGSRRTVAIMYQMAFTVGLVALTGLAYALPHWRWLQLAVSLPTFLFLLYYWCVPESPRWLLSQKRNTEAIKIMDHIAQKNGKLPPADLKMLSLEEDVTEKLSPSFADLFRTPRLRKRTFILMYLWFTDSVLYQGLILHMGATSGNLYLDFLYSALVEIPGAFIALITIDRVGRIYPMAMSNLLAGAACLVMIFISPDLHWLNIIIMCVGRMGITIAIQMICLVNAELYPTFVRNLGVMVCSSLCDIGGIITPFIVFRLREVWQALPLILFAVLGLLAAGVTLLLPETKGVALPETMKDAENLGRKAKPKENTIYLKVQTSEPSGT
Description: ASP^+ is an organic cationic mitochondrial dye that only fluoresces inside cells so that fluorescence measured in the cell culture medium can be neglected. […] In parallel, cells were incubated with Qu (100 µM) and TEA (3 mM) as mentioned in Section 4.3. After 24 h, cells were incubated with 1 µM ASP^+ in Hanks’ balanced salt solution (HBSS, Sigma-Aldrich, Taufkirchen, Germany) at 37 °C. Fluorescence was measured after 20 min at ASP^+-specific wavelength (λex = 475 nm and λem = 605 nm) on a TecanM200Pro spectrometer (Tecan Group Ltd., Männedorf, Switzerland) according to Ahlin et al., (2008).

HepaRG cells [3] = experiment: Cell viability (MTT assay) of HepaRG cells with and without transporter inhibitors; assay type: cell-based, human; details: HepaRG, 0.01% Triton X-100 positive control; listed as pos ctrl
Description: as §1, §2

| Molecule | viability at 24 h [1] [%] | effect of inhibitor on retrorsine and senecionine uptake and PANO formation (HepaRG cells [2]) | fluorescence [%], MW [%] (SLC22A1; 3mM, solv ctrl = 100) | reduction of ASP+ (SLC22A1 substrate) uptake (SLC22A1; HepaRG, 24 h, Qu 100 µM, TEA 3 mM, 1 µM ASP+) | Cell viability (MTT), percent of solvent control (HepaRG cells [3]) [%] |
| --- | --- | --- | --- | --- | --- |
| CN(C)C(=O)CCSC(SCCC(=O)O)c1cccc(/C=C/c2ccc3ccc(Cl)cc3n2)c1 (stereo not shown) [MK-571, reference compound] | 106 | decelerated retrorsine and senecionine uptake and PANO excretion, but to a lesser extent than CsA | – | – | – |
| CC[N+](CC)(CC)CC [TEA, tetraethylammonium bromide] | 84.5 | significantly reduced retrorsine uptake only after 8 and 24 h and senecionine uptake only after 8 h | 36.1156 | up to 64% | – |
| Triton X-100 [reference compound] | – | – | – | – | 2.774 |
